Assay results from US20250388896A1, “COMPOSITION AND METHODS FOR TRANSGENE INSERTION” (ARTISAN DEVELOPMENT LABS, INC, priority 2022, published 2025).

Key:
Assay type in all cases: cell-based, human
TIM3 = assay: gNA screen INDEL/frameshift frequency, TIM3; conditions: Jurkat cells; CRISPResso2 ORF disruption analysis
Description: (§1) Ribonucleoprotein complexes (RNPs) were generated by incubating respective guide nucleic acids (gNAs) with MAD7 in the molar ratio of 3:2 gNA:MAD7 for 15 minutes at room temperature immediately before transfection. For Jurkat experiments, the RNP complexes were generated by mixing the respective gNA (150 pmol), MAD7 (100 pmol), and nuclease-free water, unless otherwise stated.
(§2) Lonza 4D Nucleofector with Shuttle unit (V4SC-2960 Nucleocuvette Strips) was used for transfection, following the manufacturer's instructions. […]
(§3) Extracted genomic DNA was quantified using the NanoDrop (ThermoFisher Scientific). […] The DNA was eluted from the beads with nuclease-free water and the size of the purified amplicons analyzed on a 2% agarose E-gel using the E-gel electrophoresis system (ThermoFisher Scientific). In the second PCR, unique pairs of Illumina-compatible indexes (Nextera XT Index Kit v2) were added to the amplicons using the KAPA HiFi HotStart Ready Mix (Roche). […] Sizes of the purified DNA fragments were validated on a 2% agarose gel using the E-gel electrophoresis system (ThermoFisher Scientific), quantified using Qubit dsDNA HS Assay Kit (Thermo Fisher) and then pooled in equimolar concentrations. […] The final library was sequenced on Illumina MiSeq System using the MiSeq Reagent Kit v.2 (300 cycles, 2×250 bp, paired-end reads). […]

[1] = system: eight different loci (PDCD1, TIM3, LAG3, TIGIT, CTLA4, PTPN6, PTPN11, CD247); assay: gNA screen and validation: INDEL and frameshift frequency at eight loci by amplicon sequencing; conditions: Jurkat cells; gNAs adjacent to all YTTN PAM variants
Description: as §1, §2, §3

[2] = system: predicted off-target sites; assay: INDEL frequency at predicted off-target sites by targeted deep sequencing; conditions: Jurkat cells
Source text: Extracted genomic DNA was quantified using the NanoDrop (ThermoFisher Scientific). […] Amplification products were purified with Agencourt AMPure XP beads (Ramcon), using the sample to beads ratio of 1:1.8. The DNA was eluted from the beads with nuclease-free water and the size of the purified amplicons analyzed on a 2% agarose E-gel using the E-gel electrophoresis system (ThermoFisher Scientific). In the second PCR, unique pairs of Illumina-compatible indexes (Nextera XT Index Kit v2) were added to the amplicons using the KAPA HiFi HotStart Ready Mix (Roche). The amplified products were purified with Agencourt AMPure XP beads (Ramcon), using the sample to bead ratio of 1:1.8. […] Sizes of the purified DNA fragments were validated on a 2% agarose gel using the E-gel electrophoresis system (ThermoFisher Scientific), quantified using Qubit dsDNA HS Assay Kit (Thermo Fisher) and then pooled in equimolar concentrations. […] The final library was sequenced on Illumina MiSeq System using the MiSeq Reagent Kit v.2 (300 cycles, 2×250 bp, paired-end reads). […]
Initial quality assessment of the obtained reads was performed with FastQC36. […] For the ORF disruption analysis, CRISPRessoBatch command with the parameters --cleavage_offset 1 -coding_seq <EXON_SEQ> --quantification_window_size 0 --quantification_window_center 1 --expand_ambiguous_alignments was used. […]

PDCD1 protein = assay: PDCD1 knock-out: surface expression of PDCD1 protein by flow cytometry; conditions: Jurkat cells
Description: Flow cytometric assessments were carried out on a CytoFLEX S instrument (Beckmen Coulter) using a 96-well plate format. Measurements of cell viability, PDCD1 expression, GFP expression, and CAR expression were performed on 10,000 or 20,000 single cell events in Jurkat or primary T-cells, respectively.
For detection of PDCD1 knock-out efficiency, approx. 250,000 Jurkat cells per sample were transferred onto 96-well V-bottom cell culture plates and assessed following a series of consecutive washing and staining steps. The first step included centrifuging the cells at 300 g for 5 minutes at 4° C. and discarding the supernatant. Afterwards, the cells were stained using 100 μL Cell Staining Buffer (Biolegend) with APC/Cyanine7 anti-human CD279 (PD-1) antibody (1:100; Biolegend) and incubated for 30 minutes at 4° C. in the dark. The cells were then centrifuged at 300 g for 5 minutes at 4° C. and the supernatant discarded. The next step included two repeats of centrifugation at 300 g for 5 minutes at 4° C., supernatant removal, and cell washing in 150 μL ice-cold Cell Staining Buffer (Biolegend). In the final step, the cells were re-suspended in 100 μL Cell Staining Buffer for the flow cytometry measurements (excitation: red laser; emission: […]).
High-efficiency gNAs identified in our initial analysis were validated by assaying INDEL frequency for the top three or five gNAs for each of the selected immunologically relevant genes (FIG. 14). […] Alternating grey and white zones on the plot represent groups of three to five high-efficiency gNAs per locus. […] Using the CRISPresso2 software, the degree of open reading frame (ORF) disruption for each of the validated gNAs was estimated (FIG. 14). In addition, for four high-efficiency gNAs targeting three different exons at the PDCD1 locus, surface expression of the PDCD1 protein was measured by flow cytometry 4, 7, and 11 days post-transfection (data not shown). […] Average fraction of INDELs leading to frameshifts (dashed line) is approx. 66%. Alternating grey and white zones on the plot represent groups of three to five high-efficiency gNAs per locus.

[3] = measured 4, 7 and 11 days post-transfection, day of value not stated

crTIM3_3: validated gNA targeting TIM3 (guide UAAGUAGUAGCAGCAGCAGCA; listed as RNA, further chemistry not given here)
frameshifts frequency (fraction of frameshift to INDEL) (TIM3): 44%

MAD7: type V-A Cas nuclease MAD7
editing by PAM motif [1]: demonstrated editing with all eight combinations of YTTN PAM
INDEL frequency of MAD7 at predicted off-target sites ([2]; all assayed off-target sites, Pairwise T-test, P≥0.05): No significant INDEL frequency

crTIM3_1: validated gNA targeting TIM3 (guide CUUGUAAGUAGUAGCAGCAGC; listed as RNA, further chemistry not given here)
frameshifts frequency (fraction of frameshift to INDEL) (TIM3): 23%

crPDCD1 3: high-efficiency gNA targeting the PDCD1 locus (guide CAGUGGCGAGAGAAGACCCCG; listed as RNA, further chemistry not given here)
surface expression of the PDCD1 protein (PDCD1 protein; [3]): 35%

crPDCD1 4: high-efficiency gNA targeting the PDCD1 locus (guide CUAGCGGAAUGGGCACCUCAU; listed as RNA, further chemistry not given here)
surface expression of the PDCD1 protein (PDCD1 protein; [3]): 85%

crPDCD1_5: high-efficiency gNA targeting the PDCD1 locus (guide GUGCUAAACUGGUACCGCAUG; listed as RNA, further chemistry not given here)
surface expression of the PDCD1 protein (PDCD1 protein; [3]): 85%

crPDCD1_2: gNA targeting the PDCD1 gene at the extracellular domain of the protein (guide UCUGCAGGGACAAUAGGAGCC; listed as RNA, further chemistry not given here)
off-target activity (INDEL formation) at predicted off-target sites ([2]; 25 predicted sites, up to four mismatches, crPDCD1_2_13 and crPDCD1_2_15 sites, insignificant vs MOCK (P≥0.05)): low-level off-target activity
surface expression of the PDCD1 protein (PDCD1 protein; 4 days post-transfection): 10%
surface expression of the PDCD1 protein (PDCD1 protein; day 11 post-transfection): remained at this level
